The values below come from patent publication US3998874A, “Phenylene di-ethers” (Gist-Brocades N.V., priority 1974, dated 1976).

SMILES strings stand for the structures. Structures can show the parent of a compound that is named as a salt.

Data set [1] deals with T1, β-adrenergic (guinea pig tracheal chain) (Cavia porcellus, UniProt Q8K4Z4).
T1 construct: determined on the guinea pig tracheal chain; from tissue; host or cells: guinea pig tracheal chain (isolated)
Put plainly: β-adrenergic blocking activity on guinea pig tracheal chain (antagonism of isoprenaline relaxation, pA2). The following applies: vs isoprenaline, R = isopropyl for A-E. The method, then:
The β-adrenergic blocking activity was determined on the guinea pig tracheal chain prepared as described by H. Timmerman and N. G. Scheffer, J. Pharm. […] Int. Pharmacodyn. […] The pA2-values were calculated according to Van Rossum from the parallel shift to the right of the log dose - response curves.

The target in another data set is T2, cardiac β-receptors (Cavia porcellus, UniProt H0W3H1).
T2 construct: on the isolated, spontaneously beating, right atrium of the guinea pig; from tissue; host or cells: guinea pig right atrium (isolated, spontaneously beating)
Put plainly: antagonism to cardiac β-receptors on isolated, spontaneously beating right atrium (isoprenaline chronotropism, pA2). The following applies: isolated right atrium guinea pig, vs isoprenaline; R = isopropyl for A-E.

Data set [2] has as its system right atrial muscles from guinea pigs. The data set can be described thus: anti-arrhythmic activity in vitro, ouabain-induced arrhythmia in right atrial muscles. The following applies: Cavia porcellus; minimal drug concentration (M) preventing any arrhythmia, ouabain 0.5 μg/ml, 37° C, pH 7.4; read-out: Antiarrh. act. -log min. dose (converted). Further details: species or system guinea pig. How it is done: The anti-arrhythmic activity in vitro was determined as follows. Right atrial muscles from guinea pigs were dissected and freed from the appendage. They were suspended in 100 ml of a modified Ringer-Locke solution (g/l: […] Spontaneous contractions were recorded on a Schwarzer ECG (Cardioscript III) using an […] Transducer (8101) in a Wheatstone bridge circuit. Tension was so adjusted that contractions reached maximal amplitude while keeping distortion of the baseline minimal. After a 40-min equilibrium period the test compound was added and for 30 minutes contractile force and rate were recorded at 1-min intervals for 10 seconds. Next, ouabain was added in a concentration of 0.5 μg/ml and force and rate were measured at 1-min intervals over a 60-min period. […] This was confirmed at least once. Control experiments without test compounds were carried out daily.

For data set [3], the system named is aconitine-induced arrhythmias. Put plainly: in vivo antagonism of aconitine-induced arrhythmias. To be noted: for % protection: vs control; for Dose of aconitine inducing arrhythmias: aconitine infusion 5 μg/kg/min. Also noted: species or system male rats. How it is done:
This test was carried out in male rats under urethane anaesthesia as described by B. Vargaftig and J. L. Coignet, Eur. J. Pharmacol., 6, 49 (1969). It was estimated what dose of aconitine in an i.v. infusion (5 μ g/kg/min, rate 0.2 ml/min) would induce arrhythmias. Three minutes before the infusion physiological saline with or without test compound was injected i.v.

The nature of data set [4]: hygroscopicity (observation in the synthesis example). In kind it is physicochemical. The following applies: dihydrochloride.

T2 sequence (H0W3H1 1-470): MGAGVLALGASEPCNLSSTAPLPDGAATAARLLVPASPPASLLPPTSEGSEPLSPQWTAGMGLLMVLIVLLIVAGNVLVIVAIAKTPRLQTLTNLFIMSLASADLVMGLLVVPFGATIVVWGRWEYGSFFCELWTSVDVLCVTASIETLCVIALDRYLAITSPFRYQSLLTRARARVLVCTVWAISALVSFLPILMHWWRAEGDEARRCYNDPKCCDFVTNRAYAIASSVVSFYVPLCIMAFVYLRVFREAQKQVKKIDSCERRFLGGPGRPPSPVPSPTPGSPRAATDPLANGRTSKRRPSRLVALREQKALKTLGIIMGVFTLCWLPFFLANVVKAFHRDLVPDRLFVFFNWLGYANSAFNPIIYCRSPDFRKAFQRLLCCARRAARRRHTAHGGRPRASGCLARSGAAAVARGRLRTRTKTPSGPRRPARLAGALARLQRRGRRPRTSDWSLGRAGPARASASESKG
T1 sequence (Q8K4Z4 whole entry): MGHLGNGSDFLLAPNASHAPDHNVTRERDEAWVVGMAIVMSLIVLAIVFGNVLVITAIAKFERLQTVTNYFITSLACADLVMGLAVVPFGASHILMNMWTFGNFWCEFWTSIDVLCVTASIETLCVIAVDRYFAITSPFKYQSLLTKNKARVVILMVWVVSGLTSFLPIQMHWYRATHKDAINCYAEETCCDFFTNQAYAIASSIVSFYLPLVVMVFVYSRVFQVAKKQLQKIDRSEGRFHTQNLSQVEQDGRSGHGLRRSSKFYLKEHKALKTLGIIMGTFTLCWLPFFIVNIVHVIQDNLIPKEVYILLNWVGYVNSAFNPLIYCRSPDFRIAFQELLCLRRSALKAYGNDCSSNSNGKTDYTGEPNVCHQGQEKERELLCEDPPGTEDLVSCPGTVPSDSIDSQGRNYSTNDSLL

`CC(C)NCC(O)COc1ccccc1OCC(O)CNC(C)C` (stereo not shown) [A, 1,1'-(o-phenylenedioxy)-bis-[3-(isoproyl-amino)propan-2-ol] dihydrochloride]: the pA2 trachea in data set [1] is 6.73 (±0.05). The same molecule showed a Kb at cardiac β-receptors of 324 nM. In addition, the minimal effective concentration in data set [2] was 0.0002 M. The “% protection” value in data set [3] (4 mg/kg i.v.) worked out at 12.9%; in data set [3] (8 mg/kg i.v.), 35.5%; in data set [3] (16 mg/kg i.v.) it was 110.8%. The “Dose of aconitine inducing arrhythmias” value in data set [3] (test compound 4 mg/kg i.v.) is 0.0315 mg/kg; in data set [3] (test compound 8 mg/kg i.v.), 0.0378 mg/kg; in data set [3] (test compound 16 mg/kg i.v.) it was 0.0588 mg/kg.

As to `Cc1cccc(OCC(O)CNC(C)C)c1OCC(O)CNC(C)C.Cl.Cl` (stereo not shown) [B, 1,1'-[(3-methyl-o-phenylene)dioxy]-bis-[3-(isopropylamino)propan-2-ol] dihydrochloride], in data set [1], the pA2 trachea is reported as 5.80 (±0.08). This molecule also gave a Kb on cardiac β-receptors of 3310 nM. Also, in data set [2], the minimal effective concentration was 2e-05 M.

For the molecule `CC(C)NCC(O)COc1cccc(C(C)C)c1OCC(O)CNC(C)C` (stereo not shown) [C, 1,1'-[(3-isopropyl-o-phenylene)dioxy]-bis-[3-(isopropylamino)-propan-2-ol]dihydrochloride], the pA2 trachea in data set [1] was 5.35 (±0.11). The Kb at cardiac β-receptors was 25700 nM. For the same molecule, the minimal effective concentration in data set [2] is 1e-05 M. Moreover, the “% protection” value in data set [3] (0.5 mg/kg i.v.) is reported as 44.0%; in data set [3] (1.0 mg/kg i.v.), 79.6%; in data set [3] (2.0 mg/kg i.v.), 135.5%. For the same molecule, the “Dose of aconitine inducing arrhythmias” value is 0.0458 mg/kg in data set [3] (test compound 0.5 mg/kg i.v.), 0.0571 mg/kg in data set [3] (test compound 1.0 mg/kg i.v.) and 0.0749 mg/kg in data set [3] (test compound 2.0 mg/kg i.v.).

`Cc1ccc(OCC(O)CNC(C)C)c(OCC(O)CNC(C)C)c1.Cl.Cl` (stereo not shown) [D, 1,1'-[(4-methyl-o-phenylene)dioxy]-bis-[3-(isopropylamino)-propan-2-ol] dihydrochloride]: in data set [1], the pA2 trachea is 6.66 (±0.09). The molecule further had a Kb on cardiac β-receptors of 603 nM. Moreover, the minimal effective concentration in data set [2] is 5.01e-05 M.

Turning to `CC(C)NCC(O)COc1ccc(C(C)C)cc1OCC(O)CNC(C)C.Cl.Cl` (stereo not shown) [E, 1,1'-[(4-isopropyl-o-phenylene)dioxy]-bis-[3-(isopropylamino)-propan-2-ol] dihydrochloride], the pA2 trachea in data set [1] is reported as 6.48 (±0.09). The Kb on cardiac β-receptors was 2290 nM. Besides, in data set [2], the minimal effective concentration is 2e-05 M. Moreover, the hygroscopicity entry in data set [4] is reported as “very hydroscopic”.

With `CC(C)(C)NCC(O)COc1ccccc1OCC(O)CNC(C)(C)C` (stereo not shown) [F, 1,1'-(o-phenylenedioxy)-bis-[3-(tert.-butylamino)-propan-2-ol]dihydrochloride], the “% protection” value in data set [3] (4 mg/kg i.v.) amounted to 41.7%; in data set [3] (8 mg/kg i.v.), 104.2%; in data set [3] (16 mg/kg i.v.) it was 158.6%. For the same molecule, the “Dose of aconitine inducing arrhythmias” value in data set [3] (test compound 4 mg/kg i.v.) came out at 0.034 mg/kg; in data set [3] (test compound 8 mg/kg i.v.) it was 0.049 mg/kg; in data set [3] (test compound 16 mg/kg i.v.), 0.062 mg/kg.

With `CC(C)NCC(O)COc1ccccc1` (stereo not shown) [G, 1-(isopropylamino)-3-phenoxy-2-propanol, reference compound], the Kb in data set [1] (read-out: pA2 trachea (converted)) was 24.5 nM; on cardiac β-receptors, 0.977 nM. The minimal effective concentration in data set [2] is 0.000302 M.
